Data from patent US10188718B2, “Vaccines against Streptococcus pneumoniae serotype 4” (MAX-PLANCK-GESELLSCHAFT ZUR FÖRDERUNG DER WISSENSCHAFTEN …, priority 2014, dated 2019).
Entries after “also recorded” stand apart in the source; their conditions may differ.

Test system: human reference serum 007sp
Assay: Glycan array, antibody binding from human reference serum 007sp with CPS/CWPS competition
Settings: glycan array competition experiment, serum 007sp (FIG. 5, FIG. 6), 24* compared with 16*
Procedure: Pyruvated SP4 tetrasaccharide 24* was dissolved at 10 mM in water and diluted to 100 μM and 50 μM in coupling buffer (50 mM sodium phosphate, pH 8.5). Each concentration was spotted in duplicates to CodeLink activated glass slides (Surmodics) alongside a number of related structures and native polysaccharides (see FIG. 4 for printing pattern) using a Scienion S3 microarray printer at 65% relative humidity. The slides were incubated in a humidity saturated chamber overnight. They were washed twice with water and quenched by incubation with 100 mM ethanolamine, 50 mM sodium phosphate pH 9 for one hour at room temperature. They were washed again twice, dried by centrifugation and stored at 4° C. until use.
Slides were blocked by incubation with 1% BSA-PBS at room temperature, washed twice with PBS and dried by centrifugation. A 64 well incubation gasket was attached to the glass slides.
Sera (rabbit SP4 typing serum (SSI Diagnostica, Denmark) or human reference serum 007sp (Clin. Vaccine Immunol. 2011 18 (10), 1728)) were diluted in 1% BSA-PBS containing no competitors or native SP4 CPS (capsular polysaccharide) or CWPS (S. pneumoniae cell wall polysaccharide) as competitors. […] It was dried by centrifugation and the fluorescence was read out using s GenePix 4300a fluorescence reader.

CC(=O)N[C@@H]1[C@H](O[C@@H]2[C@H](O)[C@H](C)O[C@@H](O[C@H]3[C@@H](O)[C@@H](CO)O[C@H](O[C@@H]4[C@H](O)[C@@H](O)[C@@H](OCCCCCN)O[C@@H]4CO)[C@@H]3NC(C)=O)[C@H]2NC(C)=O)O[C@H](CO)[C@@H](O)[C@@H]1O [compound 16*, N-((2R,3S,4R,5S,6R)-2-(((2S,3S,4S,5R,6S)-3-acetamido-2-(((2R,3R,4R,5R,6R)-3-acetamido-2-(((2R,3R,4R,5R,6S)-6-((5-aminopentyl)oxy)-4,5-dihydroxy-2-(hydroxymethyl)tetrahydro-2H-pyran-3-yl)oxy)-5-hydroxy-6-(hydroxymethyl)tetrahydro-2H-pyran-4-yl)oxy)-5-hydroxy-6-methyltetrahydro-2H-pyran-4-yl)oxy)-4,5-dihydroxy-6-(hydroxymethyl)tetrahydro-2H-pyran-3-yl)acetamide]
inhibition (decline) of signal by native S. pneumoniae serotype 4 CPS: Compared to unpyruvated tetrasaccharide 16*, the signal for the pyruvated saccharide 24* can be inhibited far more efficiently; also recorded: much stronger for pyruvated tetrasaccharide 24* (spot B) compared with unpyruvated tetrasaccharide 16*
